Measurements: the supplement of paper PMC7108870

Key:
[1] = tested on: HEK293sieSTAT3(Y640F); assay: drug sensitivity score (DSS), cytotoxicity CellTox Green (DSS (dimensionless)); higher = more cytotoxic; extreme values may be limits of the assay; conditions: 72 h; STAT3 variant: Y640F (constitutively active)
In short: (§1)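 Each value is one representative of two experiments in which HEK293 cells overexpressing wild-type or mutant STAT3 with a STAT3-dependent luciferase reporter were exposed to compounds at 5 concentrations (10-fold dilutions) for 72 hours at 37°C and 5% CO2. Readouts were CellTox Green fluorescence and then CellTiter-Glo luminescence, normalised to negative and positive control wells. The drug sensitivity score was based on the dose-response curve area and computed in Breeze.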

[2] = tested on: HEK293sieSTAT3(wt); assay: as above; conditions: 72 h; STAT3 variant: wild type
In short: as §1

[3] = tested on: HEK293sieSTAT3(Y640F); assay: drug sensitivity score (DSS), viability CellTiter-Glo (DSS (dimensionless)); higher = more growth inhibition; extreme values may be limits of the assay; conditions: 72 h; STAT3 variant: Y640F (constitutively active)
In short: as §1

[4] = tested on: HEK293sieSTAT3(wt); assay: as above; conditions: 72 h; STAT3 variant: wild type
In short: as §1

| Structure (SMILES) | drug sensitivity score [1] | drug sensitivity score [2] | drug sensitivity score [3] | drug sensitivity score [4] |
| --- | --- | --- | --- | --- |
| COc1cc2c(Oc3ccc4[nH]c(C)cc4c3F)ncnc2cc1OCCCN1CCCC1 [Cediranib] (top concentration tested 1000 nM) | 0 | 0.26 | 1.03 | 1.46 |
| Cc1ccc(-c2cc(C(F)(F)F)nn2-c2ccc(S(N)(=O)=O)cc2)cc1 [Celecoxib] (top concentration tested 10000 nM) | 0 | 0.02 | 0.58 | 4.14 |
| CCS(=O)(=O)N1CCN(c2ccc(Nc3ncc(C(N)=O)c(NC4CC4)n3)cc2)CC1 [Cerdulatinib] (top concentration tested 10000 nM) | 0.63 | 7.28 | 6.32 | 9.09 |
| Cc1cc(Nc2ncc(Cl)c(Nc3ccccc3S(=O)(=O)C(C)C)n2)c(OC(C)C)cc1C1CCNCC1 [Ceritinib] (top concentration tested 2500 nM) | 0 | 0.89 | 0.86 | 1.05 |
| O=C(O)CCCc1ccc(N(CCCl)CCCl)cc1 [Chlorambucil] (top concentration tested 10000 nM) | 0 | 0 | 1.45 | 0.99 |
| CCN(CC)CCCC(C)Nc1ccnc2cc(Cl)ccc12 (centres undefined) [Chloroquine] (top concentration tested 100000 nM) | 8.17 | 15.8 | 11 | 13 |
| CC(C)[C@H]1C(=O)N[C@@H](CCCNC(=N)N)C(=O)NCC(=O)N[C@@H](CC(=O)O)C(=O)N[C@H](Cc2ccccc2)C(=O)N1C [Cilengitide] (top concentration tested 10000 nM) | 0 | 0 | 0 | 0 |
| N.N.[Cl][Pt][Cl] [Cisplatin] (top concentration tested 100000 nM) | 5.83 | 6.89 | 19.6 | 18.9 |
| Nc1nc(Cl)nc2c1ncn2[C@H]1C[C@H](O)[C@@H](CO)O1 [Cladribine] (top concentration tested 1000 nM) | 0 | 0.33 | 1.45 | 6.32 |
| Nc1nc(Cl)nc2c1ncn2[C@@H]1O[C@H](CO)[C@@H](O)[C@@H]1F [Clofarabine] (top concentration tested 10000 nM) | 3.51 | 7.13 | 18.6 | 20.3 |
| CCN(CC)CCOc1ccc(C(=C(Cl)c2ccccc2)c2ccccc2)cc1 [Clomifene] (top concentration tested 10000 nM) | 6.99 | 7.9 | 5.14 | 7.15 |
| O=C(c1ccc(F)c(F)c1Nc1ccc(I)cc1F)N1CC(O)([C@@H]2CCCCN2)C1 [Cobimetinib] (top concentration tested 1000 nM) | 0 | 0 | 3.13 | 3.78 |
| COc1c(OCCCN2CCOCC2)ccc2c1N=C(NC(=O)c1cnc(N)nc1)N1CCN=C21 [Copanlisib] (top concentration tested 1000 nM) | 0 | 0.34 | 15.5 | 18.3 |
| CC1(COc2ccc3c(c2)ncn3-c2ccc3cccc(N4CCC(N)CC4)c3n2)COC1 [Crenolanib] (top concentration tested 10000 nM) | 8.74 | 11 | 9.27 | 11.9 |
| C[C@@H](Oc1cc(-c2cnn(C3CCNCC3)c2)cnc1N)c1c(Cl)ccc(F)c1Cl [Crizotinib] (top concentration tested 1000 nM) | 0.46 | 5.34 | 1.05 | 1.97 |
| O=P1(N(CCCl)CCCl)NCCCO1 (centres undefined) [Cyclophosphamide] (top concentration tested 40000 nM) | 0 | 0 | 0 | 0 |
| Nc1ccn([C@@H]2O[C@H](CO)[C@@H](O)[C@@H]2O)c(=O)n1 [Cytarabine] (top concentration tested 10000 nM) | 0.18 | 1.75 | 8.82 | 13.3 |
| CC(C)(C)c1nc(-c2cccc(NS(=O)(=O)c3c(F)cccc3F)c2F)c(-c2ccnc(N)n2)s1 [Dabrafenib] (top concentration tested 2500 nM) | 0 | 0 | 0 | 0 |
| CN(C)/N=N/c1[nH]cnc1C(N)=O [Dacarbazine] (top concentration tested 10000 nM) | 0 | 0 | 0.02 | 2.09 |
| COc1cc2ncnc(Nc3ccc(F)c(Cl)c3)c2cc1NC(=O)/C=C/CN1CCCCC1 [Dacomitinib] (top concentration tested 1000 nM) | 0 | 0 | 1.76 | 5.47 |
| Cc1c2oc3c(C)ccc(C(=O)N[C@@H]4C(=O)N[C@H](C(C)C)C(=O)N5CCC[C@H]5C(=O)N(C)CC(=O)N(C)[C@@H](C(C)C)C(=O)O[C@@H]4C)c3nc-2c(C(=O)N[C@@H]2C(=O)N[C@H](C(C)C)C(=O)N3CCC[C@H]3C(=O)N(C)CC(=O)N(C)[C@@H](C(C)C)C(=O)O[C@@H]2C)c(N)c1=O [Dactinomycin] (top concentration tested 1000 nM) | 0 | 0 | 32.5 | 35.4 |
